# Data taken from patent US11173165B2, “Optimizing mifepristone levels for Cushing's patients” (Corcept Therapeutics, Inc., priority 2015, dated 2021).
# Tests used:
# [1] = in vivo; cited from earlier work
# [2] = target: glucocorticoid receptor (GR) (Homo sapiens, UniProt P04150); details: cited from earlier work
# [3] = system: patients with a diagnosis of Cushing's syndrome; experiment: Optimal response to mifepristone in Phase III open label study of Cushing's syndrome; assay type: in vivo, human; details: responders who completed the study
# Description: This example provides an open label study of the safety and efficacy in the treatment of Cushing's syndrome. The study was a Phase III trial performed using several investigators at several different sites. […] The number of patients was 50. Patients eligible for randomization were male or nonpregnant female outpatients, and inpatients, if clinically required, with a diagnosis of Cushing's syndrome. Mifepristone was used as the test drug at 300 (1×300 mg tablet), 600 (2×300 mg tablet), 900 (3×300 mg tablet) and 1200 mg (4×300 mg tablet) once a day by mouth. Safety visits occurred at Days 21 and 35. If clinically necessary, a patient was treated as an inpatient. If early termination occurred prior to day 35, the patient returned for a safety follow up visit at day 35. The primary efficacy endpoint was the proportion of patients with at least a 25% reduction from baseline on a standard two hour oral glucose tolerance test or a […] in their diastolic blood pressure at study end (6 months). The secondary endpoints were: (1) the patient's global impression; and (2) reduction in previously used antihypertensive medication. The criteria for assessing study efficacy objective was the proportion of patients with at least a 25% reduction from baseline on a standard two hour oral glucose tolerance test or a […] in their diastolic blood pressure at study end (6 months).
# [4] = Mifepristone trough plasma level (MIFE-Ctrough) in Phase III open label study of Cushing's syndrome; assay type: in vivo, human; details: for MIFE-Ctrough, Mean / MIFE-Ctrough, Max / MIFE-Ctrough, Median / MIFE-Ctrough, Min: responders who completed the study
# Description: Three (3) mL of blood was collected from a patient in a vacutainer containing sodium heparin. The blood was centrifuged and the resulting plasma frozen at −70 to −80° C. until assay. For analysis, the plasma samples were warmed and prepared as follows: • 1. Using a pipette, 50.0 μL of the sample was aliquoted into a 16×100-mm glass test tube. When a partial volume aliquot was needed, the aliquot was added to the tube and diluted to full volume with blank human plasma. • 2. 20.0 μL of the internal standard, mifepristone-d4 (5.00 μg/mL in acetonitrile), was added to the tube, resulting in 2000.0 ng/mL mifepristone-d4 in plasma. • 3. The tube was vortexed for approximately 1 minute. • 4. 50.0 μL of 6% ammonium hydroxide was added to the tube. • 5. The tube was vortexed for approximately 1 minute. • 6. 2.00 mL of MTBE was added to the tube. • 7. 2.00 mL of hexane was added to the tube. • 8. The tube was vortexed for at least 15 minutes. • 9. The tube was centrifuged for at least 10 minutes at 2500 RPM (575×g). • 10. The aqueous layer was frozen in a freezer set to maintain −70° C. • 11. […] The tube was vortexed for approximately 1 minute. • 15. The tube was sonicated for approximately 1 minute. • 16. The tube was vortexed for approximately 1 minute. • 17. The sample was transferred to a labeled injection vial or well plate. • 18. The vial or plate was capped and checked for air bubbles. The sample was then analyzed by reverse-phase high pressure liquid chromatography using a water:acetonitrile:formic acid (60:40:0.1) mobile phase (isocratic) at a flow rate of 0.3 mL/min. The column was a phenyl column maintained at 50° C. Mifepristone elutes at 4.2 minutes. Following elution, the mobile phase was nebulized using heated nitrogen in a Z-spray source/interface and the ionized compounds detected using a tandem quadrupole mass spectrometer. Mifepristone (molecular weight of 430 g/mol) was detected at m/z 372.30. The internal standard mifepristone-d4 was detected at m/z 376.30. The ratio of the mifepristone peak height to the mifepristone-d4 peak height was calculated. The plasma concentration of mifepristone was then calculated by comparing the experimental ratio to a standard curve of mifepristone:mifepristone-d4 peak height ratio v. mifepristone concentration. The standard curve was generated by first measuring the mifepristone:mifepristone-d4 peak height ratios for mifepristone samples at 10, 20, 50, 100, 200, 500, 1000 and 2000 ng/mL where the mifepristone-d4 internal standard has a concentration of 2000 ng/mL. The mifepristone:mifepristone-d4 peak height ratios of these known solutions were then fit to a power equation (Mass Lynx by Micromass, Beverly, Mass.), and the sample with unknown concentrations of mifepristone was compared. […]
# [5] = cited from earlier work
# [6] = at first response, including early terminators
# Chain of glucocorticoid receptor (GR) (P04150 whole entry): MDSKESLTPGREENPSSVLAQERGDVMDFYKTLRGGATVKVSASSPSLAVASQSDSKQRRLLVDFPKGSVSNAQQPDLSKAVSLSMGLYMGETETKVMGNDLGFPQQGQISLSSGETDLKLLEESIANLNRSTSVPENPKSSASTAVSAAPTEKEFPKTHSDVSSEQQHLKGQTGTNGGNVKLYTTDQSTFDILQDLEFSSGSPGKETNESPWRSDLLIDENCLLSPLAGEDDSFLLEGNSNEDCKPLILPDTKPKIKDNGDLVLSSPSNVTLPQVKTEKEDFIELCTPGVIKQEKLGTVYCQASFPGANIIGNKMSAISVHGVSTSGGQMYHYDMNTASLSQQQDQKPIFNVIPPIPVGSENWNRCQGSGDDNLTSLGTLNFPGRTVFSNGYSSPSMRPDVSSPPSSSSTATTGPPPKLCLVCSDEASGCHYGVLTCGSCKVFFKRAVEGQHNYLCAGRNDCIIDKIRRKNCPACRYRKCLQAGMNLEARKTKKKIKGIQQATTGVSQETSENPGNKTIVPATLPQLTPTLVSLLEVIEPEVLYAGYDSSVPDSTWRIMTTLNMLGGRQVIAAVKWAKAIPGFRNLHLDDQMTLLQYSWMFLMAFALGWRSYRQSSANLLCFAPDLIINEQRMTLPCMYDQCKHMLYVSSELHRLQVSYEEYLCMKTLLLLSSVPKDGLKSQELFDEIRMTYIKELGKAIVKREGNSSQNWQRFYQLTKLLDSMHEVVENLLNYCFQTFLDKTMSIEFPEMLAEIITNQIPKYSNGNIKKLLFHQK
compound,measurement,setting,value
"CC#C[C@]1(O)CC[C@H]2[C@@H]3CCC4=CC(=O)CCC4=C3[C@@H](c3ccc(N(C)C)cc3)C[C@@]21C [mifepristone, 17-beta-hydroxy-11-beta-(4-dimethyl-aminophenyl)-17-alpha-(1-propynyl)-estra-4,9-dien-3-one]",LD50 dose,[1],about 1000 mg/kg
same,binding to the glucocorticoid receptor (GR),[2],high affinity
same,Cumulative Optimal Response (%),[3]; dose 300,20%
same,Optimal Response (%),[3]; dose 300,20%
same,Cumulative Optimal Response (%),[3]; dose 600,40%
same,Optimal Response (%),[3]; dose 600,20%
same,Cumulative Optimal Response (%),[3]; dose 900,60%
same,Optimal Response (%),[3]; dose 900,20%
same,Cumulative Optimal Response (%),[3]; dose 1200,100%
same,Optimal Response (%),[3]; dose 1200,40%
same,"MIFE-Ctrough at Response, Max",[4]; [6],4210.00 ng/mL
same,"MIFE-Ctrough at Response, Mean",[4]; [6],1968.68 ng/mL
same,"MIFE-Ctrough at Response, Median",[4]; [6],1770.00 ng/mL
same,"MIFE-Ctrough at Response, Min",[4]; [6],448.00 ng/mL
same,"MIFE-ΔCtrough from Prior Dose, Max",[4]; [6],2017.00 ng/mL
same,"MIFE-ΔCtrough from Prior Dose, Mean",[4]; [6],221.50 ng/mL
same,"MIFE-ΔCtrough from Prior Dose, Median",[4]; [6],250.00 ng/mL
same,"MIFE-ΔCtrough from Prior Dose, Min",[4]; [6],-860.00 ng/mL
same,"MIFE-Ctrough, Mean",[4]; dose 300 (mg once a day by mouth),1774.28 ng/mL
same,"MIFE-Ctrough, Max",[4]; dose 300,4130.00 ng/mL
same,"MIFE-Ctrough, Median",[4]; dose 300,1455.00 ng/mL
same,"MIFE-Ctrough, Min",[4]; dose 300,820.00 ng/mL
same,"MIFE-Ctrough, Mean",[4]; dose 600 (mg once a day by mouth),1951.66 ng/mL
same,"MIFE-Ctrough, Max",[4]; dose 600,3850.00 ng/mL
same,"MIFE-Ctrough, Median",[4]; dose 600,1630.00 ng/mL
same,"MIFE-Ctrough, Min",[4]; dose 600,890.00 ng/mL
same,"MIFE-Ctrough, Mean",[4]; dose 900 (mg once a day by mouth),2107.70 ng/mL
same,"MIFE-Ctrough, Max",[4]; dose 900,4230.00 ng/mL
same,"MIFE-Ctrough, Median",[4]; dose 900,1820.00 ng/mL
same,"MIFE-Ctrough, Min",[4]; dose 900,992.00 ng/mL
same,"MIFE-Ctrough, Mean",[4]; dose 1200 (mg once a day by mouth),2292.86 ng/mL
same,"MIFE-Ctrough, Max",[4]; dose 1200,5440.00 ng/mL
same,"MIFE-Ctrough, Median",[4]; dose 1200,2022.50 ng/mL
same,"MIFE-Ctrough, Min",[4]; dose 1200,1060.00 ng/mL
same,blood serum level to be maintained for a therapeutic response,[4]; patients suffering from Cushing's syndrome,at least 1631 ng/mL
same,blood serum level to be maintained,[5]; patients suffering from a mental disorder,about 1300 ng/mL
same,difference in blood serum levels from one patient to another,"[5]; same dose, different patients",≤ 800%
